Where two headings read alike, the source gives them in different places.

This is an account of results in patent US4797488A, “Psychotropic polycyclic imides” (American Home Products Corporation, priority 1987, dated 1989).

One assay concerns the target T1, D-2 dopamine receptor (Rattus norvegicus, UniProt P61169).
T1 construct: from tissue; host or cells: limbic brain tissue
The assay is described as follows: [3H]Spiroperidol binding inhibition, homogenized limbic brain tissue. The text has this:
The results of this testing with compounds representative of the invention whose production is exemplified,infra, are as follows: […]

Assay [1] has as its system conditioned avoidance responding. The assay is described as follows: Conditioned avoidance, shelf-jump response test. The following applies: ip, single dose, rat. Type of assay: in vivo, male CD rats (Charles River). An excerpt:
(§1) The antipsychotic properties of the compounds of this invention were established by standard pharmacologically accepted procedures involving conditioned avoidance studies in which trained male CD rats (Charles River), 400-450 g. body weight are exposed to a fifteen second warning tone (conditioned stimulus) continued for an additional fifteen seconds accompanied by electric shock. The rat can avoid the electric shock by jumping to an exposed shelf (shelf-jump response). A response during the initial warning tone is considered an avoidance response, while a response during shock delivery is considered as escape response. The shelf-jump response test procedure follows that of Herman et al., Comm. in Psychopharm., 3, pp. 165-171 (1979). The compounds of this invention were tested at a single dose (40 mg./kg. i.p.) in this procedure and were rated relative to their inhibition of conditioned avoidance responding. A similar test procedure in which a lever press was substituted for a shelf-jump was used to establish the oral (p.o) activity of the test compounds. Orally active compounds were tested over a full dose range and the Avoidance Block activities reported as "AB50 's" (mg./kg.).

The test system is the same in assay [2]. The assay is described as follows: Conditioned avoidance, discrete trial (lever press), oral. The following applies: for ED50: Rattus norvegicus, po, read-out: Conditioned avoidance, discrete trial AB50 (Avoidance Block); for Conditioned avoidance, discrete trial AB50 (Avoidance Block): p.o. The assay is classed as in vivo, rat.
Description: as §1

For assay [3], the target named is T2, 5-HT1A serotonin receptor (Rattus norvegicus, UniProt P19327).
T2 construct: 44: 1685-1696, 1985; from tissue
T2 sequence (P19327 1-422): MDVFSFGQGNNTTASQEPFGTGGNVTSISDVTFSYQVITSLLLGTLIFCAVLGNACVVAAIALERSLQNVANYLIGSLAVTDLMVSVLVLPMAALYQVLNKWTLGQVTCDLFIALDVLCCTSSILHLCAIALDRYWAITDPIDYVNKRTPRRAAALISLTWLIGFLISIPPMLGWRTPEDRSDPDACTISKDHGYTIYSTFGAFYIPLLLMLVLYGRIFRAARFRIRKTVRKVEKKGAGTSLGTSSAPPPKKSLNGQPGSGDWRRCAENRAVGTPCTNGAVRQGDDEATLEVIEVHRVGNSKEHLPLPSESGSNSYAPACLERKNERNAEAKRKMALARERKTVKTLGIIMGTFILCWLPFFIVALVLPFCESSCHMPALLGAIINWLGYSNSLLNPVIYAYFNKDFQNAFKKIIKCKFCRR
As to the kind of experiment: Inhibition of [3H] 8-OH DPAT binding. The following applies: 5-HT1A.
Description: 8-OH DPAT (dipropylaminotetralin) from the 5-HT1A serotonin receptor by the procedure of Hall et al., J. Neurochem.

Assay [4] has as its system apomorphine-induced stereotyped behavior and climbing. The assay is described as follows: Antagonism of apomorphine-induced stereotyped behavior and climbing. Type of assay: in vivo, CF-1 mice (Charles River). The following applies: head: p.o. (text: i.p.), apomorphine 1 mg/kg s.c., mice; for ED50: Mus musculus.
Setting [5] is: read-out: Apomorphine antagonism ED50, climbing.
Where [6] appears, read: read-out: Apomorphine antagonism ED50, stereotypy.

T1 sequence (P61169 whole entry): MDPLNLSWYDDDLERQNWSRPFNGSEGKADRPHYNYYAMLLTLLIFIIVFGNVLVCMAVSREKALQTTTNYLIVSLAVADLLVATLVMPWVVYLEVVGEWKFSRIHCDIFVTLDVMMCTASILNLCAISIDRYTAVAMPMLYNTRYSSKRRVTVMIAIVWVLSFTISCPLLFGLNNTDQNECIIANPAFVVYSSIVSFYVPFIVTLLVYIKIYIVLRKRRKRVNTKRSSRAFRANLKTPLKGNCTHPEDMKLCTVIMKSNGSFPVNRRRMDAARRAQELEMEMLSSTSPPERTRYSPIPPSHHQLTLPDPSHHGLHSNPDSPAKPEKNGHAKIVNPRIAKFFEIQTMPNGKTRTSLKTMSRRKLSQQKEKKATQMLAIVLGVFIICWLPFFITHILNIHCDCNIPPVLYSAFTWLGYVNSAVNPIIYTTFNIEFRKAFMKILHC

As to `O=C1C2CC(C(=O)N1CCCCN1CCN(c3ncccn3)CC1)C1C2C2C3CC4C2C4C31` (stereo not drawn) [Example 6, Decahydro-3-[4-[4-(2-pyrimidinyl)-1-piperazinyl]butyl]-1,5-methano-6,7,9-metheno-2H-pentaleno[1,2-d]azepine-2,4(3H)-dione], the Ki at D-2 dopamine receptor amounted to 56 nM; in assay [3] it was 0.23 nM. The inhibition in vivo at 40 mg/kg in assay [1] was approximately 80%. Moreover, the ED50 was 33.8 mg/kg in assay [2] and 0.4 mg/kg in assay [4] (setting [5]). The “Apomorphine antagonism ED50, stereotypy” value in assay [4] was “inactive”.

As for `O=C1C2CC(C(=O)N1CCCCN1CCN(c3cnccn3)CC1)C1C2C2C3CC4C2C4C31` (stereo not drawn) [Example 13, Decahydro-3-[4-[4-(2-pyrazinyl)-1-piperazinyl]butyl]-1,5-methano-6,7,9-metheno-2H-pentaleno[1,2-d]azepine-2,4(3H)-dione], the inhibition at 1 µM at D-2 dopamine receptor came to 51%. In assay [1], the inhibition in vivo at 40 mg/kg is approximately 80%. For the same molecule, the ED50 in assay [2] is 40.2 mg/kg; in assay [4] (setting [5]), 5.44 mg/kg; in assay [4] (setting [6]), 32.3 mg/kg. The same molecule displayed a Ki in assay [3] of 4 nM.

As to `O=C1C2CC(C(=O)N1CCCCN1CCN(c3cnccn3)CC1)C1CCCC21` (stereo not drawn) [Example 3, Hexahydro-3-[4-[4-(2-pyrazinyl)-1-piperazinyl]butyl]-1,5-methanocyclopent[d]azepine-2,4(1H,3H)-dione], on D-2 dopamine receptor, the inhibition at 1 µM stood at 23%. The molecule further had an inhibition in vivo at 40 mg/kg in assay [1] of approximately 80%. Further, in assay [2], the “Conditioned avoidance, discrete trial AB50 (Avoidance Block)” value (shortened to “Conditioned avoidance”) is “inactive”. In assay [3], the Ki turned out to be 41 nM. Further, the ED50 in assay [4] (setting [5]) is 4.91 mg/kg; in assay [4] (setting [6]) it was 30.9 mg/kg.

Consider `O=C1C2CC(C(=O)N1CCCCN1CCN(c3ncccn3)CC1)c1ccccc12` [Example 8, 2,3,4,5-Tetrahydro-3-[4-[4-(2-pyrimidinyl)-1-piperazinyl]butyl]-1,5-methano-1H-3-benzazepine-2,4(3H, 5H)-dione], for which testing at 1 µM at D-2 dopamine receptor gave an inhibition of 23%. In assay [1], this molecule registered an inhibition in vivo at 40 mg/kg of more than 20%. In assay [2], the “Conditioned avoidance” value is “inactive”. For the same molecule, in assay [3] (1 μM), the inhibition at 1 µM turned out to be 89%. Besides, in assay [4], the “Apomorphine antagonism ED50, climbing” value was “inactive” and the “Apomorphine antagonism ED50, stereotypy” value is “inactive”.

Consider `O=C1C2CC(C(=O)N1CCCCN1CCN(c3ncccn3)CC1)C1C3CCC(C3)C21` (stereo not drawn) [Example 15, Octahydro-3-[4-[4-(2-pyrimidinyl)-1-piperazinyl]butyl]-2H-1,5:6,9-dimethano-2H-3-benzazepine-2,4(3H)-dione], for which the Ki is 174 nM on D-2 dopamine receptor and 0.5 nM in assay [3]. In assay [1], this molecule displayed an inhibition in vivo at 40 mg/kg of more than 20%. Further, in assay [2], the “Conditioned avoidance” value is “inactive”. The ED50 in assay [4] (setting [5]) worked out at 14.3 mg/kg; in assay [4] (setting [6]), 2.54 mg/kg.

In turn, `O=C1C2CC(C(=O)N1CCCCN1CCN(c3cncc(Cl)n3)CC1)C1CCCC21` (stereo not drawn) [Example 2, Hexahydro-3-[4-[4-(6-chloro-2-pyrazinyl)-1-piperazinyl]butyl]-1,5-methanocyclopent[d]azepine-2,4(1H,3H)-dione] returned an inhibition at 1 µM at D-2 dopamine receptor of 20%. The inhibition in vivo at 40 mg/kg in assay [1] was more than 20%. In addition, in assay [2], the “Conditioned avoidance” value is “inactive”. Further, affinity in assay [3] was put at a Ki of 31 nM. Besides, the ED50 in assay [4] (setting [5]) was 24.2 mg/kg. For the same molecule, the “Apomorphine antagonism ED50, stereotypy” value in assay [4] was “inactive”.

Regarding `O=C1C2CC(C(=O)N1CCCCN1CCN(c3ncccn3)CC1)C1CCCC21` (stereo not drawn) [Example 1, Hexahydro-3-[4-[4-(2-pyrimidinyl)-1-piperazinyl]butyl]-1,5-methanocyclopent[d]azepine-2,4(1H,3H)-dione], 1 µM produced 54% inhibition on D-2 dopamine receptor. In assay [1], this molecule returned an inhibition in vivo at 40 mg/kg of more than 20%. Moreover, the ED50 in assay [2] stood at 40.1 mg/kg; in assay [4] (setting [5]), 4.08 mg/kg. Further, the Ki in assay [3] came out at 3 nM. In addition, in assay [4], the “Apomorphine antagonism ED50, stereotypy” value is “inactive”.

As to `O=C1C2CC(C(=O)N1CCCCN1CCN(c3cncc(Cl)n3)CC1)C1C2C2C3CC4C2C4C31` (stereo not drawn) [Example 7, Decahydro-3-[4-[4-(6-chloro-2-pyrazinyl)-1-piperazinyl]butyl]-1,5-methano-6,7,9-metheno-2H-pentaleno[1,2-d]azepine-2,4(3H)-dione], the inhibition at 1 µM on D-2 dopamine receptor worked out at 54%. The molecule further had an inhibition in vivo at 40 mg/kg in assay [1] of more than 20%. For the same molecule, in assay [2], the “Conditioned avoidance” value is “inactive”. In assay [3], this molecule yielded a Ki of 6.95 nM. In addition, in assay [4], the “Apomorphine antagonism ED50, climbing” value was “inactive” and the “Apomorphine antagonism ED50, stereotypy” value is “inactive”.

Take `O=C1C2CC(C(=O)N1CCCCN1CCN(c3ncccn3)CC1)C1CC=CC21` (stereo not drawn) [Example 4, 5,5a,8,8a-Tetrahydro-3-[4-[4-(2-pyrimidinyl)-1-piperazinyl]butyl]1,5-methanocyclopent[d]azepine-2,4(1H,3H)-dione]: on D-2 dopamine receptor, the inhibition at 1 µM is 59%. Moreover, the inhibition in vivo at 40 mg/kg in assay [1] was approximately 80%. Besides, the “Conditioned avoidance” value in assay [2] is reported as “weak”. This molecule also gave a Ki in assay [3] of 3.5 nM. Further, in assay [4] (setting [5]), the ED50 is 5.5 mg/kg. Besides, the “Apomorphine antagonism ED50, stereotypy” value in assay [4] was “inactive”.

The Ki is the equilibrium dissociation constant of an inhibitor or competing ligand from its target. A low value points to tighter binding. The inhibition in vivo is the share of the control response that was lost under treatment. For orientation: inhibition means how much of the control response was suppressed.
